{"source": "patent US9981950B2", "about": "“Triazoles as NR2B receptor inhibitors” (Janssen Pharmaceuticals, Inc., priority 2014, dated 2018)"}
{"target": "hERG-receptor (Homo sapiens (Human), UniProt Q12809)", "sequence (Q12809 whole entry)": "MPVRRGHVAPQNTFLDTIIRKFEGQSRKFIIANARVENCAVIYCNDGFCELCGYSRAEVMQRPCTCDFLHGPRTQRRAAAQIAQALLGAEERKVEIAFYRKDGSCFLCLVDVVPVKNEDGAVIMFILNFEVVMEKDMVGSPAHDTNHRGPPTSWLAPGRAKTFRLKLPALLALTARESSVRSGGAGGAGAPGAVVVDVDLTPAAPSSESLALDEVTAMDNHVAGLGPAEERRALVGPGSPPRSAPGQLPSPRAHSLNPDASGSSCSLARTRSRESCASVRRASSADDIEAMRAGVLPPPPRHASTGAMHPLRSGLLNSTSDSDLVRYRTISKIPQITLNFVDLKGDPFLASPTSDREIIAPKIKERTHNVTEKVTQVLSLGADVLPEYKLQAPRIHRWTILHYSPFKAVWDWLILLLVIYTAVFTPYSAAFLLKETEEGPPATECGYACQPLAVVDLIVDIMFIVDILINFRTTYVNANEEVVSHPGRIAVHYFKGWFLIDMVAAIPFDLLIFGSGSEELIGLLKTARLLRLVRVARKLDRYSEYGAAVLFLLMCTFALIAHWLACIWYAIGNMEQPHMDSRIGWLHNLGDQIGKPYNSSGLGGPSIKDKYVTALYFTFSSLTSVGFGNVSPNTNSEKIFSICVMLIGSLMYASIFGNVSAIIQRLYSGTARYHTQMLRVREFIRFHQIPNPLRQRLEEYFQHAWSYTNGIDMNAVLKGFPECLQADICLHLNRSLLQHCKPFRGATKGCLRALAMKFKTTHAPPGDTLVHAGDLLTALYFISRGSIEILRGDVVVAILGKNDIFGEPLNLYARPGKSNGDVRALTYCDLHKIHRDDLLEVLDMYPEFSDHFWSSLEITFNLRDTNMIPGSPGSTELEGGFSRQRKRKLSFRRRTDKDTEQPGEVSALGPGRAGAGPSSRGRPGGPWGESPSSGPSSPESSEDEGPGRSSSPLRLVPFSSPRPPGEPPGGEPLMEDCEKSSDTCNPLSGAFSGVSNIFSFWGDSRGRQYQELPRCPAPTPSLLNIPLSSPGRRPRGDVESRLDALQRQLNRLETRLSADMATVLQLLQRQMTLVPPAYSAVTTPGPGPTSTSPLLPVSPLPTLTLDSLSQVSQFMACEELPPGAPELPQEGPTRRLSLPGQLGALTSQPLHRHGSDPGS", "test": "HERGBD: inhibition of specific 3H-Dofetilide binding to the hERG-receptor", "conditions": "HEK cell membranes with human ERG, Hill-plot 2-parameter-model", "method_in_brief": "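Membranes from HEK cells stably expressing human ERG incubated 90 min at RT with 1.5 nmol/l 3H-dofetilide in 20 mM HEPES/0.1 mM KCl pH 7.2, inhibitor in 1% DMSO. Nonspecific binding with […] dofetilide; bound ligand separated by filtration and scintillation counted.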", "units": {"IC50": "µM"}}
{"molecule": "OCCc1nccn1Cc1cn(-c2ccc(F)c(OC(F)F)c2)nn1", "note": "[Example 101, 1-(3-Difluoromethoxy-4-fluoro-phenyl)-4-[2-(2-hydroxy-ethyl)-imidazol-1-ylmethyl]-1H-[1,2,3]triazole]", "IC50": 36.7}
{"molecule": "Cn1nccc1Cc1cn(-c2ccc(F)c(Cl)c2)nn1", "note": "[Example 109, 1-(3-Chloro-4-fluoro-phenyl)-4-(2-methyl-2H-pyrazol-3-ylmethyl)-1H-[1,2,3]triazole]", "IC50": "> 100"}
{"molecule": "Cc1nccn1Cc1cn(-c2ccc(F)c(C(F)F)c2)nn1", "note": "[Example 81, 1-(3-Difluoromethyl-4-fluoro-1-phenyl)-4-(2-methyl-imidazol-1-ylmethyl)-1H-[1,2,3]triazole]", "IC50": 14.3}
{"molecule": "Nc1nccn1Cc1cn(-c2ccc(F)c(C(F)F)c2)nn1", "note": "[Example 113B, 4-(2-amino-imidazol-1-ylmethyl)-1-(4-fluoro-3-difluoromethyl-phenyl)-1H-[1,2,3]triazole]", "IC50": 11}
{"molecule": "Fc1ccc(-n2cc(Cn3ccnc3C3CC3)nn2)cc1C(F)F", "note": "[Example 82, 4-(2-Cyclopropyl-imidazol-1-ylmethyl)-1-(3-difluoromethyl-4-fluoro-phenyl)-1H-[1,2,3]triazole]", "IC50": 15.7}
{"molecule": "CC(C)c1nccn1Cc1cn(-c2ccc(F)c(C(F)F)c2)nn1", "note": "[Example 84, 1-(3-Difluoromethyl-4-fluoro-phenyl)-4-(2-isopropyl-imidazol-1-ylmethyl)-1H-[1,2,3]triazole]", "IC50": 25.1}
{"molecule": "Cc1nccn1Cc1cn(-c2ccc(Cl)c(OC(F)F)c2)nn1", "note": "[Example 93, 1-(4-Chloro-3-difluoromethoxy-phenyl)-4-(2-methyl-imidazol-1-ylmethyl)-1H-[1,2,3]triazole]", "IC50": 9.6}
{"molecule": "CC(C)c1nccn1Cc1cn(-c2ccc(Cl)cc2)nn1", "note": "[Example 23, 1-(4-Chloro-phenyl)-4-(2-isopropyl-imidazol-1-ylmethyl)-1H-[1,2,3]triazole]", "IC50": 7.94}
{"molecule": "Nc1nccn1Cc1cn(-c2ccc(Cl)c(C(F)F)c2)nn1", "note": "[Example 113A, 4-(2-amino-imidazol-1-ylmethyl)-1-(4-chloro-3-difluoromethyl-phenyl)-1H-[1,2,3]triazole]", "IC50": 3.09}
{"molecule": "CC(F)(F)c1cc(-n2cc(Cn3ccnc3N)nn2)ccc1F", "note": "[Example 114]", "IC50": 4.31}
{"test_system": "Male NMRI mice", "test": "Forced swim test in mice", "type": "in vivo", "conditions": "p.o. 30 minutes before the test", "experimental": "The method, which detects antidepressant activity, follows that described by Porsolt et al (Arch. Int. Pharmacodyn., 229, 327-336, 1977), which is incorporated by reference herein in its entirety.\nMice forced to swim in a situation from which they cannot escape rapidly become immobile. Antidepressants decrease the duration of immobility.\nMale NMRI mice (Janvier, France), weighing 20-30 g, were individually placed in a cylinder (height=24 cm; diameter=13 cm) containing 10 cm water (22° C.) from which they cannot escape.\nThe mice were placed in the water for 6 minutes and the duration of immobility during the last 4 minutes was measured. The latency to the first bout of immobility was also recorded starting from the beginning of the test. 10 mice were studied per group. The test substance was administered p.o. 30 minutes before the test and compared with vehicle control group. The test was performed blind.", "units": {"Minimum effective dose (mg/kg p.o.)": "mg/kg"}}
{"molecule": "OCCc1nccn1Cc1cn(-c2ccc(F)c(OC(F)F)c2)nn1", "note": "[Example 101, 1-(3-Difluoromethoxy-4-fluoro-phenyl)-4-[2-(2-hydroxy-ethyl)-imidazol-1-ylmethyl]-1H-[1,2,3]triazole]", "Minimum effective dose (mg/kg p.o.)": ">30"}
{"molecule": "Fc1ccc(-n2cc(Cn3ccnc3C3CC3)nn2)cc1C(F)F", "note": "[Example 82, 4-(2-Cyclopropyl-imidazol-1-ylmethyl)-1-(3-difluoromethyl-4-fluoro-phenyl)-1H-[1,2,3]triazole]", "Minimum effective dose (mg/kg p.o.)": 60}
